Experimental data reported in the NIST ThermoML archive (doi:10.1016/j.jct.2012.08.033).
Numbers after ± are expanded uncertainties.

Assays:
[1] = Liquid, vibrating tube
[2] = xn = mol fraction of the nth substance listed; conditions: Liquid, vibrating tube, x1 = 1

Row | Structure (SMILES) | mass density ([1]; 293.28 K, 100.7 kPa) [kg/m3] | mass density ([1]; 313.3 K, 78.5 kPa) [kg/m3] | mass density ([2]; 293.28 K, 100.7 kPa) [kg/m3] | mass density ([2]; 313.3 K, 78.5 kPa) [kg/m3]
1 | O [water] | 998.33 ± 2 | 992.09 ± 2 |  | 
2 | O [water] + C1CCOC1 |  |  | 998.33 ± 2 | 992.09 ± 2
